Test system: not listed separately
Experiment: Cytotoxicity against human MT4 cells assessed as cell viability after 96 hrs by MTT assay
Type: cell-based
Conditions: not given
For Nc1ccc(-n2nc3ccccc3n2)cc1, the CC50 at 96 h was ≥ 100 µM.

Test system: not listed separately
Experiment: Cytotoxicity against MDBK cells assessed as cell viability after 48 to 96 hrs by MTT assay
Type: cell-based, Bos taurus
Conditions: cattle
With O=c1cnn([C@@H]2O[C@H](CO)[C@@H](O)[C@H]2O)c(=O)[nH]1 [6-AZAURIDINE] the CC50 was > 100 µM. Nc1ccc(-n2nc3ccccc3n2)cc1 showed a CC50 of 100 µM.

Test system: not listed separately
Experiment: Cytotoxicity against BHK cells assessed as cell viability after 48 to 96 hrs by MTT assay
Type: cell-based, Mesocricetus auratus
Conditions: hamster
For O=c1cnn([C@@H]2O[C@H](CO)[C@@H](O)[C@H]2O)c(=O)[nH]1 [6-AZAURIDINE], the CC50 was > 100 µM. Nc1ccc(-n2nc3ccccc3n2)cc1 showed a CC50 of 100 µM.

Test system: not listed separately
Experiment: Cytotoxicity against african green monkey Vero 76 cells assessed as cell viability after 48 to 96 hrs by crystal violet staining method
Type: cell-based
Conditions: chlorocebus sabaeus
In the case of Cc1cc(CCCOc2c(C)cc(-c3noc(C(F)(F)F)n3)cc2C)on1 [PLECONARIL], the CC50 is reported as 70 µM. For Nc1ccc(-n2nc3ccccc3n2)cc1, the CC50 was > 100 µM.

Test system: Bovine viral diarrhea virus 1
Experiment: Antiviral activity against BVDV infected in MDBK cells assessed as inhibition of virus-induced cytopathogenicity after 3 to 4 days by MTT assay
Type: functional, organism-based
Conditions: Bovine viral diarrhea virus isolates and strains
For O=c1cnn([C@@H]2O[C@H](CO)[C@@H](O)[C@H]2O)c(=O)[nH]1 [6-AZAURIDINE], the EC50 was > 100 µM. Compound Nc1ccc(-n2nc3ccccc3n2)cc1 has an EC50 of 35 µM.

Test system: Yellow fever virus
Experiment: Antiviral activity against YFV infected in BHK-21 cells assessed as inhibition of virus-induced cytopathogenicity after 3 to 4 days by MTT assay
Type: functional, organism-based
Conditions: not given
Work on Nc1ccc(-n2nc3ccccc3n2)cc1 yielded an EC50 of 75 µM.

Test system: Mammalian orthoreovirus 1
Experiment: Antiviral activity against Reo-1 virus infected in BHK-21 cells assessed as inhibition of virus-induced cytopathogenicity after 3 to 4 days by MTT assay
Type: functional, cell-based
Conditions: Mammalian orthoreovirus 1, BHK-21
In the case of O=c1cnn([C@@H]2O[C@H](CO)[C@@H](O)[C@H]2O)c(=O)[nH]1 [6-AZAURIDINE], the EC50 is reported as > 100 µM. For Nc1ccc(-n2nc3ccccc3n2)cc1, the EC50 was 90 µM.

Test system: Coxsackievirus B5
Experiment: Antiviral activity against human CVB5 infected in african green monkey Vero76 cells assessed as inhibition of virus-induced cytopathogenicity after 3 days by plaque reduction assay
Type: functional, organism-based
Conditions: Enterovirus B, Vero 76, 72 h
Cc1cc(CCCOc2c(C)cc(-c3noc(C(F)(F)F)n3)cc2C)on1 [PLECONARIL] gave an EC50 of 0.008 µM. In the case of O=c1cnn([C@@H]2O[C@H](CO)[C@@H](O)[C@H]2O)c(=O)[nH]1 [6-AZAURIDINE], the EC50 is reported as > 100 µM. In the case of Nc1ccc(-n2nc3ccccc3n2)cc1, the EC50 is reported as > 100 µM.

Test system: Human orthopneumovirus
Experiment: Antiviral activity against human RSV infected in african green monkey Vero76 cells assessed as inhibition of virus-induced cytopathogenicity after 5 days by plaque reduction assay
Type: functional, organism-based
Conditions: human respiratory syncytial virus, Vero 76, 120 h
Work on O=c1cnn([C@@H]2O[C@H](CO)[C@@H](O)[C@H]2O)c(=O)[nH]1 [6-AZAURIDINE] yielded an EC50 of 1200 nM. With Nc1ccc(-n2nc3ccccc3n2)cc1 the EC50 was > 100000 nM.

Test system: Poliovirus 1
Experiment: Antiviral activity against Human poliovirus 1 Sabin infected in african green monkey Vero76 cells assessed as inhibition of virus-induced cytopathogenicity by plaque reduction assay
Type: functional, organism-based
Conditions: Enterovirus C, Vero 76
Compound Cc1cc(CCCOc2c(C)cc(-c3noc(C(F)(F)F)n3)cc2C)on1 [PLECONARIL] has an EC50 of 2 µM. In the case of O=c1cnn([C@@H]2O[C@H](CO)[C@@H](O)[C@H]2O)c(=O)[nH]1 [6-AZAURIDINE], the EC50 is reported as > 100 µM. For Nc1ccc(-n2nc3ccccc3n2)cc1, the EC50 was > 100 µM.

Test system: not listed separately
Experiment: Selectivity index, ratio of CC50 for MDBK cells to EC50 for BVDV
Design: species or system Bovine viral diarrhea virus 1
Conditions: not given
With Nc1ccc(-n2nc3ccccc3n2)cc1 the “Ratio CC50/EC50” value was 2.86.

Test system: not listed separately
Experiment: Selectivity index, ratio of CC50 for BHK-21 cells to EC50 for YFV
Design: species or system Yellow fever virus
Conditions: not given
For Cc1cc(CCCOc2c(C)cc(-c3noc(C(F)(F)F)n3)cc2C)on1 [PLECONARIL], the “Ratio CC50/EC50” value was 8750. In the case of O=c1cnn([C@@H]2O[C@H](CO)[C@@H](O)[C@H]2O)c(=O)[nH]1 [6-AZAURIDINE], the “Ratio CC50/EC50” value is reported as >3.8. In the case of Nc1ccc(-n2nc3ccccc3n2)cc1, the “Ratio CC50/EC50” value is reported as 1.33.

Test system: not listed separately
Experiment: Selectivity index, ratio of CC50 for african green monkey Vero76 cells to EC50 for human RSV
Design: species or system human respiratory syncytial virus, Vero 76
Conditions: not given
In the case of O=c1cnn([C@@H]2O[C@H](CO)[C@@H](O)[C@H]2O)c(=O)[nH]1 [6-AZAURIDINE], the “Ratio CC50/EC50” value is reported as 16.7.

Test system: not listed separately
Experiment: Selectivity index, ratio of CC50 for african green monkey Vero76 cells to EC50 for human Sb-1
Design: species or system Human poliovirus 1 strain Sabin, Vero 76
Conditions: not given
In the case of Cc1cc(CCCOc2c(C)cc(-c3noc(C(F)(F)F)n3)cc2C)on1 [PLECONARIL], the “Ratio CC50/EC50” value is reported as 35.

Test system: Human immunodeficiency virus 1
Experiment: Antiviral activity against HIV-1 infected in MT4 cells assessed as inhibition of virus-induced cytopathogenicity after 4 days by MTT assay
Type: functional, organism-based
Conditions: Human immunodeficiency virus 1, MT4, 96 h
For Nc1ccc(-n2nc3ccccc3n2)cc1, the EC50 was > 100 µM.

Test system: Influenza B virus
Experiment: Antiviral activity against Influenza B virus
Type: functional
Conditions: not given
For Oc1ccc2nn[nH]c2c1/N=N/c1ccc(Cl)cc1, the EC75 was 4.3 µM.

Test system: Human alphaherpesvirus 1
Experiment: Antiviral activity against HSV1
Type: functional, organism-based
Conditions: not given
For O=c1cnn([C@@H]2O[C@H](CO)[C@@H](O)[C@H]2O)c(=O)[nH]1 [6-AZAURIDINE], the EC50 was > 100 µM.

Test system: Vesicular stomatitis virus
Experiment: Antiviral activity against VSV
Type: functional, organism-based
Conditions: not given
With O=c1cnn([C@@H]2O[C@H](CO)[C@@H](O)[C@H]2O)c(=O)[nH]1 [6-AZAURIDINE] the EC50 was > 100 µM. For Nc1ccc(-n2nc3ccccc3n2)cc1, the EC50 was > 100 µM.

Test system: Vaccinia virus
Experiment: Antiviral activity against Vaccinia virus
Type: functional, organism-based
Conditions: Orthopoxvirus vaccinia
With O=c1cnn([C@@H]2O[C@H](CO)[C@@H](O)[C@H]2O)c(=O)[nH]1 [6-AZAURIDINE] the EC50 was 11 µM. For Nc1ccc(-n2nc3ccccc3n2)cc1, the EC50 was > 100 µM.
